This note sets out measurements from ChEMBL document CHEMBL1149974, “New Oligosaccharidic Crown Ethers as Potential Drug-Targetting Vectors: Synthesis & Biological Evaluation” (1994).

Values after ≈ are worked out from the molar mass of the structure shown.

This test concerns Saccharomyces cerevisiae. Kind of test: Minimum inhibitory concentration required for in vitro inhibition of flocculation against cell wall galactose-specific yeast lectin (KbCWL). The test is classed as functional.
As usually defined, the MIC is the lowest concentration found to suppress growth. Read a high MIC as a less susceptible organism. The molecule `CO[C@@H]1O[C@H](CO)[C@H](O)[C@H](O)[C@H]1O` displayed an MIC of 1750 µM (≈ 340 µg/mL).
With `CO[C@H]1O[C@@H](C)[C@@H](O[C@@H]2O[C@@H](CO)[C@@H](O[C@@H]3O[C@@H](CO)[C@H](O)[C@H](O)[C@@H]3O)[C@H](O)[C@@H]2O)[C@@H]2OCCOCCOc3ccccc3OCCOCCO[C@H]12`, the MIC stood at 3000 µM (≈ 2260 µg/mL).
Consider LACTOSE, ANHYDROUS, for which 1250 µM was the least that counted as inhibitory (MIC).
Next, `CO[C@H]1O[C@@H](C)[C@@H](O[C@@H]2O[C@@H](CO)[C@H](O)C(O)[C@@H]2O)C2OCCOCCOc3ccccc3OCCOCCO[C@@H]21` (single isomer, unassigned): 2650 µM (≈ 1570 µg/mL); `O=C[C@H](O)[C@@H](O)[C@@H](O)[C@H](O)CO` [GALACTOSE]: 3500 µM (≈ 631 µg/mL).
